Two molecules from ChEMBL document CHEMBL1138052, “Discovery and optimization of anthranilic acid sulfonamides as inhibitors of methionine aminopeptidase-2: a structural basis for the reduction of albumin binding” (J Med Chem, 2006) can be followed below.

Each structure is given as a SMILES string.

The nature of this data set: Protein binding in rat plasma. It is filed as ADME, organism-based. As to conditions: read-out: PPB (converted).

Turning to `Cc1ccc(NS(=O)(=O)c2ccccc2)c(C(=O)O)c1`, the fraction unbound was 0.003. In the case of `O=C(O)c1c(NS(=O)(=O)c2ccccc2)ccc2c1CCCC2`, the fraction unbound was 0.002.
